Test in all cases: Cell proliferation assay (CellTiter-Glo, 72 hours)
The target of one assay is T1, BaF3 EML4-ALK (Homo sapiens, UniProt Q9UM73).
T1 construct: The EML4-ALK gene (variant 1) was synthesized at GenScript and cloned into pCDH-CMV-MCS-EF1-Puro plasmid (System Biosciences, Inc); fused on or other part: Q9HC35 (Echinoderm microtubule-associated protein-like 4)
The format is cell-based. Particulars: anti-cell proliferation. As for the experimental part:
The EML4-ALK gene (variant 1) was synthesized at GenScript and cloned into pCDH-CMV-MCS-EF1-Puro plasmid (System Biosciences, Inc). Ba/F3-EML4-ALK wild type were generated by transducing Ba/F3 cells with lentivirus containing EML4-ALK wide type. Stable cell lines were selected by puromycin treatment, followed by IL-3 withdrawal. Briefly, 5×10^6 Ba/F3 cells were transduced with lentivirus supernatant in the presence of 8 μg/mL protamine sulfate. The transduced cells were subsequently selected with 1 μg/mL puromycin in the presence of IL3-containing medium RPMI1640, plus 10% FBS. After 10-12 days of selection, the surviving cells were further selected for IL3 independent growth.
(§1) Two thousand cells per well were seeded in 384 well white plate for 24 hrs, and then treated with compounds for 72 hours (37° C., 5% CO2). Cell proliferation was measured using CellTiter-Glo luciferase-based ATP detection assay (Promega) following the manufactures's protocol. IC50 determinations were performed using GraphPad Prism software (GraphPad, Inc., San Diego, Calif.).

For the next assay, the system named is KG-1. In kind it is cell-based, human. As for the experimental part:
(§2) Human medulla thyroid carcinoma cell line TT (containing RET […] mutation) and acute myelogenous cell line KG-1 were purchased from ATCC. Human colon cancer cell line KMI2 (containing TPM3-TRKA) was obtained from NCI.
as §1

The subject of a further assay is KM12 cell (TPM3-TRKA). The format is cell-based, human. The method, then: as §2, §1
For the next assay, the target named is T2, BaF3 KIF5B-RET (Homo sapiens, UniProt P07949).
T2 construct: fused on or other part: P33176 (Kinesin-1 heavy chain)
The format is cell-based. Particulars: anti-cell proliferation, read-out: BaF3 KIF5B-RET IC50.
Text: (§3) The KIF5B-RET gene was synthesized at GenScript and cloned into pCDH-CMV-MCS-EF1-Puro plasmid (System Biosciences, Inc). KIF5B-RET point mutation V804M was generated at GenScript by PCR and confirmed by sequencing. Ba/F3-KIF5B-RET wild type and mutant were generated by transducing Ba/F3 cells with lentivirus containing KIF5B-RET wide type or mutant. Stable cell lines were selected by puromycin treatment, followed by IL-3 withdrawal. Briefly, 5×10^6 Ba/F3 cells were transduced with lentivirus supernatant in the presence of 8 μg/mL protamine sulfate. The transduced cells were subsequently selected with 1 µg/mL puromycin in the presence of IL3-containing medium RPMI1640, plus 10% FBS. After 10-12 days of selection, the surviving cells were further selected for IL3 independent growth.
as §1

In a further assay the target is T3, BaF3 KIF5B-RET_G810R (Homo sapiens, UniProt P07949, G810R, cells depend on it).
T3 construct: fused on or other part: P33176 (Kinesin-1 heavy chain)
In kind it is cell-based. Particulars: anti-cell proliferation, read-out: BaF3 KIF5B-RET_G810R IC50.
Text: [The source words this procedure for another variant and reports this variant under the same test.] as §3, §1

The next assay concerns the target T4, BaF3 KIF5B-RET_V804M (Homo sapiens, UniProt P07949, V804M, cells depend on it).
T4 construct: fused on or other part: P33176 (Kinesin-1 heavy chain)
The format is cell-based. Particulars: anti-cell proliferation, read-out: BaF3 KIF5B-RET_V804M IC50.
Text: as §3, §1

[1] abbreviates: Homo sapiens, KG-1, anti-cell proliferation.
[2] abbreviates: Homo sapiens, KM12, anti-cell proliferation.

T4 sequence (P07949 whole entry V804M, the tested form may be a part): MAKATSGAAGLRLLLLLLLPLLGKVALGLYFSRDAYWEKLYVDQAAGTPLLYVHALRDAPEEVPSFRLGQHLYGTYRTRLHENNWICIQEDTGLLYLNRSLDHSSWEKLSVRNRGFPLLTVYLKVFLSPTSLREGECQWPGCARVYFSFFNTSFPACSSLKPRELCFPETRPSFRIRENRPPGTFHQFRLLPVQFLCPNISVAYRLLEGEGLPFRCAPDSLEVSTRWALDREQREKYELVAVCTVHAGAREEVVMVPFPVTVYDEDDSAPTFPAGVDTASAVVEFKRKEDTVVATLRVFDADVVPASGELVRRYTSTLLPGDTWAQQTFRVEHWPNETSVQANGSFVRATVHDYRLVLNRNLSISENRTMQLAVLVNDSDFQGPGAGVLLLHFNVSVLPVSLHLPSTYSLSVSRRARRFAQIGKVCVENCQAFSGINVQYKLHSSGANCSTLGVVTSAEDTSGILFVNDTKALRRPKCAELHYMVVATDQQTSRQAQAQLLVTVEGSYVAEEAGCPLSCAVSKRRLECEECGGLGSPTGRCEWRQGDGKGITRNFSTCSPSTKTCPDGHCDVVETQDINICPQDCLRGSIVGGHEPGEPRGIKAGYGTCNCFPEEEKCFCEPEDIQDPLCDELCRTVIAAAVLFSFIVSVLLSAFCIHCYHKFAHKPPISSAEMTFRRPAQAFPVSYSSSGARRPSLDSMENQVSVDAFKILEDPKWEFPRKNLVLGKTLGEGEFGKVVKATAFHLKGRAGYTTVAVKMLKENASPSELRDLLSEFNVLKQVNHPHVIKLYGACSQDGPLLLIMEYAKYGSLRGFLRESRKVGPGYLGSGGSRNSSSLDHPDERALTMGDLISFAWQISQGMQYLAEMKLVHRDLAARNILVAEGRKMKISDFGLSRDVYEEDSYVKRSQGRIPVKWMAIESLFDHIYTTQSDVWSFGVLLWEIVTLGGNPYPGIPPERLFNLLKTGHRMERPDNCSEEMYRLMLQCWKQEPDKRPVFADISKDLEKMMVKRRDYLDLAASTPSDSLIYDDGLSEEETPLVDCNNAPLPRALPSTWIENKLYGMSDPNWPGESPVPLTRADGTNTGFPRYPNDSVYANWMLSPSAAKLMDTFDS
T2 sequence (P07949 whole entry, change not shown, the tested form may be a part): as the sequence (P07949 whole entry V804M, the tested form may be a part) above, with M804V counted along it
T1 sequence (Q9UM73 whole entry, change not shown, the tested form may be a part): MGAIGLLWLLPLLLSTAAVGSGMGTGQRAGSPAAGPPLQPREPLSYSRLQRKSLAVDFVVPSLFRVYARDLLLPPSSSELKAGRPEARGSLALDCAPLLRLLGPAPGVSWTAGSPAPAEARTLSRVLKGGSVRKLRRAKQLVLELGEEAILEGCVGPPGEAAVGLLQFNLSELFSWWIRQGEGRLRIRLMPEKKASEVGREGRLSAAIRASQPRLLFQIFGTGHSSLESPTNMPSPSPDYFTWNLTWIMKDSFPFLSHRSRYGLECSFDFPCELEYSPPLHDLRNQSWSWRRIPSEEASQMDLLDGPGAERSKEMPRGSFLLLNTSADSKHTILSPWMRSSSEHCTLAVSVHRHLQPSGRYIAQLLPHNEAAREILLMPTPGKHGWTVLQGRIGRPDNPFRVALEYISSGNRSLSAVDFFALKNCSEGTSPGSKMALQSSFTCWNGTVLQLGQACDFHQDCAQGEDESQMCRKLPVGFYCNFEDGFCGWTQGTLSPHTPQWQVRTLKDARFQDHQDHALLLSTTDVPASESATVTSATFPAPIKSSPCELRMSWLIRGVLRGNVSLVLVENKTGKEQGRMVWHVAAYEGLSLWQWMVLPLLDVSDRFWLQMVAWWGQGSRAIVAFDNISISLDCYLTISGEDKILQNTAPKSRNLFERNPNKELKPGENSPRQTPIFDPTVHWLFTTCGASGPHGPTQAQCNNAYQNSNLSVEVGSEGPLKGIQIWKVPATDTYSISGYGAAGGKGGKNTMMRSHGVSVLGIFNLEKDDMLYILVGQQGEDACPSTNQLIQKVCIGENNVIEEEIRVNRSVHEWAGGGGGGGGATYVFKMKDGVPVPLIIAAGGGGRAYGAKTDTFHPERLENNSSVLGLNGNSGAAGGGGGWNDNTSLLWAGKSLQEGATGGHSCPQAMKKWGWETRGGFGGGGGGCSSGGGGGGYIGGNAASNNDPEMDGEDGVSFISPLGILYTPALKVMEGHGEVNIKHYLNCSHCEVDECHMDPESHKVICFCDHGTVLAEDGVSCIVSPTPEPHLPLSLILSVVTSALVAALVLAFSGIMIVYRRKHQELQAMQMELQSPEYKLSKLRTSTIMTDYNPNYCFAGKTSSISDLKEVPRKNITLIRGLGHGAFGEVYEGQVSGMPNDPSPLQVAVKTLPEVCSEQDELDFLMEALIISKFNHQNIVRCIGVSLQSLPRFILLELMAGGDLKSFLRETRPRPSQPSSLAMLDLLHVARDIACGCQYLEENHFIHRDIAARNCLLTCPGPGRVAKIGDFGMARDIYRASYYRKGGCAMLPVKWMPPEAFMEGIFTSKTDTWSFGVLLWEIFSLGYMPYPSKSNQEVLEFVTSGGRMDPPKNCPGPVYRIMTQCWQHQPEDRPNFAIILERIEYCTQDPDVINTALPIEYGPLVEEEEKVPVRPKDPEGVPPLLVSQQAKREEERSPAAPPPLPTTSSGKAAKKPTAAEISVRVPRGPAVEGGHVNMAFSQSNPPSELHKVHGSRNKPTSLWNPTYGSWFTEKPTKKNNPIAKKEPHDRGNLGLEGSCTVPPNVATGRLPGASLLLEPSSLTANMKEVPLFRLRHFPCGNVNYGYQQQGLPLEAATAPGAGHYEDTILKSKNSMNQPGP
T3 sequence (P07949 whole entry G810R, the tested form may be a part): as the sequence (P07949 whole entry V804M, the tested form may be a part) above, with M804V, G810R counted along it

Turning to `O=C1NCC2(CC2)COc2ncc(F)cc2CN2c3nc4c1cnn4cc3O[C@H]1CCC[C@H]12` [Compound 20, (3a′R,21a′S)-7′-fluoro-1′H,2′H,3′H,3a′H, 5′H,11′H,13′H,14′H,15′H,21a′H-spiro[cyclopropane-1,12′-[10,21]dioxa[4,9,14,17,18,19][hexaaza [18,20](metheno)cyclopenta[5,6][1,4]oxazino[4,3-e]pyrazolo[3,4-h]pyrido [3,2-b][1,5,7,11]oxatriazacyclotetradecin]-15′-one], the GI50 on BaF3 EML4-ALK stood at 1400 nM; at BaF3 KIF5B-RET, 1.1 nM; at BaF3 KIF5B-RET_G810R, 7.8 nM; at BaF3 KIF5B-RET_V804M, 1860 nM. Also, the IC50 (commonly the concentration at which inhibition is half-maximal) with KG-1 (setting [1]) came out at 2.4 nM; in the assay on KM12 cell (TPM3-TRKA) (setting [2]), 0.5 nM.

For the compound `O=C1NCCCOc2ncc(F)cc2CN2c3nc4c1cnn4cc3O[C@H]1CCC[C@H]12` [Compound 19, (3aR,21aS)-7-fluoro-2,3,3a,11,12,13,14,21a-octahydro-1H,5H,15H-18,20-(metheno)cyclopenta[5,6][1,4]oxazino[4,3-e]pyrazolo[3,4-h]pyrido[2,3-b][1,5,7,11]oxatriazacyclotetradecin-15-one], the GI50 was found to be 895 nM at BaF3 EML4-ALK, 5.2 nM at BaF3 KIF5B-RET, 78 nM on BaF3 KIF5B-RET_G810R and 3070 nM on BaF3 KIF5B-RET_V804M. Moreover, the 50% inhibitory concentration (IC50) in the assay on KG-1 (setting [1]) came out at 73.1 nM; in the assay with KM12 cell (TPM3-TRKA) (setting [2]), 7.8 nM.

On to `C[C@@H]1COc2ncc(F)cc2CN2c3nc4c(cnn4cc3O[C@H]3CCCC[C@H]32)C(=O)N1` [Compound 13, (4aR,13S,21aS)-8-fluoro-13-methyl-1,2,3,4,4a,13,14,21a-octahydro-6H-18, 20-(metheno)pyrazolo[4′,3′:6,7]pyrido [3′,2′:12,13][1,4,8, 10]oxatriazacyclotridecino[9,10-c][1,4]benzoxazin-15(12H)-one], for which the GI50 at BaF3 EML4-ALK is 5000 nM; at BaF3 KIF5B-RET, 342 nM; on BaF3 KIF5B-RET_G810R it was 1120 nM; on BaF3 KIF5B-RET_V804M, more than 10000 nM. Also, the values for the IC50 in the assay on KG-1 (setting [1]) and in the assay on KM12 cell (TPM3-TRKA) (setting [2]) were 452 nM and 28.4 nM, respectively.

`O=C1N[C@H](C(F)(F)F)COc2ncc(F)cc2CN2c3nc4c1cnn4cc3O[C@H]1CCC[C@H]12` [Compound 48, (3aR,12S,20aS)-7-fluoro-12-(trifluoromethyl)-2,3,3a,12,13,20a-hexahydro-1H,5H-17,19-(metheno)cyclopenta[5,6][1,4]oxazino[3,4-i]pyrazolo[4,3-f]pyrido[3,2-l][1,4,8,10]oxatriazacyclotridecin-14(11H)-one]: the GI50 on BaF3 EML4-ALK is 456 nM; on BaF3 KIF5B-RET it was 0.2 nM; on BaF3 KIF5B-RET_G810R, 90.9 nM; at BaF3 KIF5B-RET_V804M, 1070 nM. The concentration for half-maximal inhibition (IC50) turned out to be 117 nM in the assay on KG-1 (setting [1]) and 5.9 nM in the assay on KM12 cell (TPM3-TRKA) (setting [2]).

For the compound `O=C1NC[C@@H](F)COc2ncc(F)cc2CN2c3nc4c1cnn4cc3O[C@H]1CCC[C@H]12` [Compound 39, 3aR,12R,21aS)-7,12-difluoro-2,3,3a,11,12,13,21a-octahydro-1H,5H, 15H-18,20-(metheno)cyclopenta[5,6][1,4] oxazino[4,3-e]pyrazolo[3,4-h]pyrido[2,3-b][1,5,7,11]oxatriazacyclotetradecin-15-one], the GI50 at BaF3 EML4-ALK is 152 nM; at BaF3 KIF5B-RET, 10.2 nM; on BaF3 KIF5B-RET_G810R it was 57.3 nM; at BaF3 KIF5B-RET_V804M it was 3000 nM. In addition, the IC50 came out at 59.2 nM in the assay on KG-1 (setting [1]) and 7.4 nM in the assay on KM12 cell (TPM3-TRKA) (setting [2]).

Consider `O=C1NCC(O)(O)COc2ncc(F)cc2CN2c3nc4c1cnn4cc3O[C@H]1CCC[C@H]12` [Compound 33, (3aR,21aS)-7-fluoro-12,12-dihydroxy-2,3,3a,11,12,13,14,21a-octahydro-1H,5H,15H-18,20-(metheno)cyclopenta[5,6][1,4]oxazino[4,3-e]pyrazolo[3,4-h]pyrido[2,3-b][1,5,7,11]oxatriazacyclotetradecin-15-one], for which the GI50 on BaF3 EML4-ALK came to 2000 nM; on BaF3 KIF5B-RET it was 198 nM; at BaF3 KIF5B-RET_G810R it was 1200 nM; at BaF3 KIF5B-RET_V804M, 4000 nM. The figures for the IC50 with KG-1 (setting [1]) and with KM12 cell (TPM3-TRKA) (setting [2]) were 356 nM and 124 nM, respectively.

Regarding `O=C1NC2(COc3ncc(F)cc3CN3c4nc5c1cnn5cc4O[C@H]1CCC[C@H]13)CC(F)(F)C2` [Compound 25, (3a′R,20a′S)-3,3,7′-trifluoro-1′H,2′H, 3′H,3a′H,5′H,11′H,13′H,14′H,20a′H-spiro[cyclobutane-1,12′-[10,20]dioxa[4,9,13,16,17,18][hexaaza [17,19](metheno)cyclopenta[5,6][1,4]oxazino[3,4-i]pyrazolo[4,3-f]pyrido [3,2-l][1,4,8,10]oxatriazacyclotridecin]-14′-one], the GI50 at BaF3 EML4-ALK is 3000 nM; on BaF3 KIF5B-RET, 193 nM; on BaF3 KIF5B-RET_G810R, 559 nM; at BaF3 KIF5B-RET_V804M, 3000 nM. Besides, the IC50 in the assay with KG-1 (setting [1]) was determined as 677 nM; in the assay with KM12 cell (TPM3-TRKA) (setting [2]), 277 nM.

Turning to “(3aR,11s,13S,21aS)-7-fluoro-2,3,3a,12, 13,14,15,21a-octahydro-1H,5H,11H- 11,13-methano-18,20- (metheno)cyclopenta[5,6][1,4] oxazino[4,3-e]pyrazolo[3,4-h]pyrido[2,3- b][1,5,7,11]oxatriazacyclotetradecine [Compound 46]”, the GI50 at BaF3 EML4-ALK was 55.5 nM; at BaF3 KIF5B-RET, less than 0.2 nM; at BaF3 KIF5B-RET_G810R, 2.9 nM; at BaF3 KIF5B-RET_V804M it was 71.5 nM. Besides, the figures for the half-maximal inhibitory concentration (IC50) with KG-1 (anti-cell proliferation) and in the assay on KM12 cell (TPM3-TRKA) (anti-cell proliferation) were 5.9 nM and 2.8 nM, respectively.

As to `O=C1N[C@H](C(F)F)COc2ncc(F)cc2CN2c3nc4c1cnn4cc3O[C@H]1CCC[C@H]12` [Compound 47, (3aR,12S,20aS)-12-(difluoromethyl)-7-fluoro-2,3,3a,12,13,20a-hexahydro-1H,5H-17,19-(metheno)cyclopenta[5,6][1,4] oxazino[3,4-i]pyrazolo[4,3-f]pyrido[3,2-l][1,4,8,10]oxatriazacyclotridecin-14(11H)-one], the GI50 at BaF3 EML4-ALK was 139 nM; on BaF3 KIF5B-RET, less than 0.2 nM; at BaF3 KIF5B-RET_G810R, 3.6 nM; at BaF3 KIF5B-RET_V804M, 469 nM. In addition, the IC50 is 3.5 nM in the assay on KG-1 (setting [1]) and less than 0.2 nM in the assay with KM12 cell (TPM3-TRKA) (setting [2]).

Turning to `O=C1NC2(CCCC2)COc2ncc(F)cc2CN2c3nc4c1cnn4cc3O[C@H]1CCC[C@H]12` [Compound 26, (3a′R,20a′S)-7′-fluoro-1′H,2′H, 3′H,3a′H,5′H,11′H,13′H,14′H,20a′H-spiro[cyclopentane-1,12′-[10,20]dioxa[4,9,13,16,17,18][hexaaza [17,19](metheno)cyclopenta[5,6][1,4]oxazino[3,4-i]pyrazolo[4,3-f]pyrido [3,2-l][1,4,8,10]oxatriazacyclotridecin]-14′-one], the GI50 is 1410 nM at BaF3 EML4-ALK, 160 nM on BaF3 KIF5B-RET, 323 nM on BaF3 KIF5B-RET_G810R and 5000 nM on BaF3 KIF5B-RET_V804M. Moreover, the IC50 with KG-1 (setting [1]) is 737 nM; in the assay with KM12 cell (TPM3-TRKA) (setting [2]), 210 nM.

Consider `O=C1NC2(CC2)COc2ncc(F)cc2CN2c3nc4c1cnn4cc3O[C@H]1CCC[C@H]12` [Compound 18, (3a′R,20a′S)-7′-fluoro-1′H,2′H,3′H,3a′H, 5′H,11′H,13′H,14′H,20a′H-spiro[cyclopropane-1,12′-[10,20]dioxa[4,9,13,16,17,18][hexaaza [17,19](metheno)cyclopenta[5,6][1,4]oxazino[3,4-i]pyrazolo[4,3-f]pyrido [3,2-l][1,4,8,10]oxatriazacyclotridecin]-14′-one], for which the GI50 on BaF3 EML4-ALK came to 77.2 nM; on BaF3 KIF5B-RET it was 7.1 nM; on BaF3 KIF5B-RET_G810R it was 24.4 nM; at BaF3 KIF5B-RET_V804M, 1530 nM. Moreover, the IC50 turned out to be 16.9 nM in the assay with KG-1 (setting [1]) and 11.3 nM with KM12 cell (TPM3-TRKA) (setting [2]).

Regarding `O=C1NCC(F)(F)COc2ncc(F)cc2CN2c3nc4c1cnn4cc3O[C@H]1CCC[C@H]12` [Compound 40, (3aR,21aS)-7,12,12-trifluoro-2,3,3a,11,12,13,14,21a-octahydro-1H,5H, 15H-18,20-(metheno)cyclopenta[5,6][1,4] oxazino[4,3-e]pyrazolo[3,4-h]pyrido[2,3-b][1,5,7,11]oxatriazacyclotetradecin-15-one], the GI50 at BaF3 EML4-ALK was 1950 nM; at BaF3 KIF5B-RET, less than 0.2 nM; at BaF3 KIF5B-RET_G810R, 1.8 nM; on BaF3 KIF5B-RET_V804M it was 5000 nM. The figures for the concentration for half-maximal inhibition (IC50) with KG-1 (setting [1]) and with KM12 cell (TPM3-TRKA) (setting [2]) were 19.1 nM and less than 0.2 nM, respectively.

(Values after patent US10745416B2, “Macrocyclic compounds for treating disease” (Turning Point Therapeutics, Inc., priority 2017, dated 2020).)
